Experimental data as given in ChEMBL document CHEMBL1131965, “Isoquinoline-6-carboxamides as potent and selective anti-human cytomegalovirus (HCMV) inhibitors” (Bioorg Med Chem Lett, 1999).
In brackets after ≈: the same amount, converted by molar mass.

How the values were obtained:
Hs68 [1] = test: Anti-HCMV activity in Hs 68 cell line by plaque reduction assay; format: functional, cell-based; conditions: Homo sapiens
Hs68 [2] = test: Cytotoxicity in Hs 68 cell line by inhibition of cell proliferation; format: functional; conditions: Homo sapiens

IC50 (Hs68 [1]) [µg/mL]	SMILES	CC50 (Hs68 [2]) [µg/mL]
0.5 (≈ 2.87 µM)	O=C(O)c1cc2ccncc2cn1	
> 25	COc1ccccc1CNC(=O)c1ccc2ccccc2n1	10 (≈ 34.2 µM)
